The test addresses T1, Full length (FL) 3-Phosphoglycerate Dehydrogenase (PHGDH) (Homo sapiens, UniProt O43175).
T1 construct: Full length (FL) 3-Phosphoglycerate Dehydrogenase (PHGDH) Diaphorase coupled assay (500 uM NAD)
T1 sequence (O43175 1-533): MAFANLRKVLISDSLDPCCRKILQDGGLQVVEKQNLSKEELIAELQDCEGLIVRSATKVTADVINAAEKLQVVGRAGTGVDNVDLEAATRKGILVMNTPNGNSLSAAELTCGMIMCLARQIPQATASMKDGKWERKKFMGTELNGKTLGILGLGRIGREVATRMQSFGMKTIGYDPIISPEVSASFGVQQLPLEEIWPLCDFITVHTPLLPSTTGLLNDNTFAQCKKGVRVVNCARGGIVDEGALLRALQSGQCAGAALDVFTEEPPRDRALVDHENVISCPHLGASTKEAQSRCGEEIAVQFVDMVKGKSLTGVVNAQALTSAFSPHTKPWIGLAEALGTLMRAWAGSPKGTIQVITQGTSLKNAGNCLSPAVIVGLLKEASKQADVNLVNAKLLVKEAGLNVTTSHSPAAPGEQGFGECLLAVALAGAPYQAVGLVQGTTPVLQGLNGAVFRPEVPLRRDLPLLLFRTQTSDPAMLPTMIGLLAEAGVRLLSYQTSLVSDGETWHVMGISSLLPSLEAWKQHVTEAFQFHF
Description: Full length (FL) PHGDH Diaphorase coupled assay (500 uM NAD). Type of test: biochemical. The note with it: full-length PHGDH 5 nM, 30° C. 60 minutes, resorufin fluorescence. The protocol:
Full length (FL) 3-Phosphoglycerate Dehydrogenase (PHGDH) Diaphorase coupled assay (500 uM NAD)
PHGDH activity was determined by detecting the NADH produced during the reaction. Diaphorase was used to catalyze the oxidation of NADH with the concomitant reduction of resazurin to the fluorescent product resorufin. Resorufin fluorescence quantitatively reflected the production of NADH by the PHGDH reaction. To drive the forward reaction, two enzymes in the serine synthesis pathway subsequent to PHGDH, Phosphoserine aminotransferase (PSAT1) and phosphoserine phosphatase (PSPH) were also added to the reaction.
Briefly, serial dilution of compounds were incubated in a volume of 20 μL in 384 well plates with the assay mixture containing 5 nM PHGDH, 500 nM PSAT1, 500 nM PSPH, 500 μM NAD^+, 80 uM 3-phosphoglycerate, 1 mM glutamate, 57 uM Resazurin and 0.2 mg/ml Diaphorase in assay buffer containing 50 mM Trisethanoloamine (TEA) pH8.0, 10 mM MgCl2, 0.01% Tween-20 and 0.05% Bovine Serum Albumin (BSA). The plate was then incubated at 30° C. for 60 minutes and resorufin fluorescence was measured at emission wavelength 598 nm following excitation at 525 nm. The positive control consisted of the complete reaction mixture with 4% DMSO and was set to 0% inhibition.

Regarding `COc1ccc2c(cc(C(=O)NC3(c4ccc(C(C)C(=O)O)cc4F)CCOC3)n2C)c1Cl` (racemic) [I-40 e55], the IC50 (usually the concentration needed to halve the response being measured) fell in the range of 0.001 to 1 µM.
`COc1cc2c(cc(C(=O)NC3(c4ccc(CC(=O)O)cc4F)COC3)n2C)c(Cl)c1C` [I-62 e46] came in with an IC50 of 0.001 to 1 µM.
In turn, `CCC(C(=O)O)c1ccc(C2(NC(=O)c3cc4c(Cl)c(Cl)c(OC)cc4n3C)CCOC2)cc1` (racemic) [I-23 e82] gave an IC50 of 0.001 to 1 µM.
In the case of `CC(=O)N1CCC(NC(=O)c2cc3c(Cl)c(Cl)ccc3n2C)(c2ccc(C(=O)O)cc2)C1` (racemic) [I-110 e20], the IC50 lay within 0.001 to 1 µM.
In turn, `Cn1c(C(=O)NC2(c3ccc(C(=O)O)cc3)CCOC2)cc2c(Cl)c3c(cc21)OCCO3` (racemic) [I-113 e35] had a 50% inhibitory concentration (IC50) of 0.001 to 1 µM.
As for `Cn1c(C(=O)N[C@@]2(c3ccc(CC(=O)O)cc3)CCOC2)cc2c(Cl)c(Cl)ccc21` (single isomer, unassigned) [I-108 or I-109 e151 peak 2], the figure is 0.001 to 1 µM.
The result for `Cn1c(C(=O)NC2(c3ccc(C(C(=O)O)C4CCC4)cc3)CCOC2)cc2c(Cl)c(Cl)ccc21` (racemic) [I-12 e86] reads 0.001 to 1 µM; that for `Cn1c(C(=O)NC2(c3ccc(C(C)(C)C(=O)O)cc3)CCOC2)cc2c(Cl)c(Cl)ccc21` (racemic) [I-87 e37], 0.001 to 1 µM.
Take `CCC(C(=O)O)c1ccc(C2(NC(=O)c3cc4c(Cl)c(Cl)ccc4n3C)CCOC2)cc1` (racemic) [I-72 e56]: the half-inhibitory concentration (IC50) lay within 0.001 to 1 µM.
Consider `Cc1cc(C(=O)O)ccc1C1(NC(=O)c2cc3c(Cl)c(Cl)ccc3n2C)COC1` [I-83 e50], for which the 50% inhibitory concentration (IC50) was 0.001 to 1 µM.
As for `CC(c1ccc(C2(NC(=O)c3cc4c(Cl)c(Cl)ccc4n3C)CCOC2)cc1)c1nnn[nH]1` (racemic) [I-52 e91], the IC50 lay in the range of 0.001 to 1 µM.
With `COc1ccc2c(cc(C(=O)NC3(c4ccc(C(=O)O)cc4C)COC3)n2C)c1Cl` [I-60 e65], the concentration for half-maximal inhibition (IC50) fell in the range of 0.001 to 1 µM.
`Cn1c(C(=O)NC2(c3ccc(C(C(=O)O)C4CCC4)cc3)COC2)cc2c(Cl)c(Cl)ccc21` (racemic) [I-8 e116] showed a half-inhibitory concentration (IC50) of 0.001 to 1 µM.
Compound `Cn1c(C(=O)NC2(c3ccc(C(=O)O)c(C#N)c3)CCOC2)cc2c(Cl)c(Cl)ccc21` (racemic) [I-120 e154, (±)-2-Cyano-4-(3-(4,5-dichloro-1-methyl-1H-indole-2-carboxamido)tetrahydrofuran-3-yl)benzoic acid] registered a concentration for half-maximal inhibition (IC50) of 0.001 to 1 µM.
`Cn1c(C(=O)NC2(c3cccc(CC(=O)O)c3)CCOC2)cc2c(Cl)c(Cl)ccc21` (racemic) [I-119 e153, (±)-2-[3-[3-[(4,5-Dichloro-1-methyl-indole-2-carbonyl)amino]tetrahydrofuran-3-yl]phenyl]acetic acid] returned an IC50 of 0.001 to 1 µM.
Regarding `Cn1c(C(=O)NC2(c3ccc(C(=O)O)cc3)CCOC2)cc2c(Cl)cc(OCC3CNC(=O)O3)cc21` (racemic) [I-95 e96], the concentration for half-maximal inhibition (IC50) fell in the range of 1 to 5 µM.
`COc1cc2c(cc(C(=O)NC3(c4ccc(C(=O)O)cc4C)COC3)n2C)c(Cl)c1F` [I-47 e77]: the IC50 was in the range of 0.001 to 1 µM.
With `COc1ccc2c(cc(C(=O)NC3(c4ccc(C(C)(C)C(=O)O)cc4)CCOC3)n2C)c1Cl` (racemic) [I-77 e63], the half-inhibitory concentration (IC50) was in the range of 0.001 to 1 µM.
`Cc1ccc2c(cc(C(=O)NC3(c4ccc(C(=O)O)cc4)CCOC3)n2C)c1Cl` (racemic) [I-116 e32] registered a concentration for half-maximal inhibition (IC50) of 0.001 to 1 µM.
As to `CCC(C(=O)O)c1ccc(C2(NC(=O)c3cc4c(Cl)c(Cl)ccc4n3C)COC2)cc1` (racemic) [I-42 e133], the IC50 is 0.001 to 1 µM.
The result for `Cc1cc(C(=O)O)ccc1C1(NC(=O)c2cc3c(Cl)c(Cl)ccc3n2C)CCOC1` (racemic) [I-99 e89] reads 0.001 to 1 µM.
The result for `COc1cc(CC(=O)O)ccc1C1(NC(=O)c2cc3c(Cl)c(Cl)ccc3n2C)COC1` [I-69 e52] reads 5 to 10 µM; that for `COc1cc2c(cc(C(=O)NC3(c4ccc(C(C(=O)O)C(C)C)cc4)COC3)n2C)c(Cl)c1Cl` (racemic) [I-29 e135, (±)-2-[4-[3-[(4,5-Dichloro-6-methoxy-1-methyl-indole-2-carbonyl)amino]oxetan-3-yl]phenyl]-3-methyl-butanoic acid], 0.001 to 1 µM.
The result for `COCCOc1cc2c(cc(C(=O)NC3(c4ccc(C(=O)O)cc4)CCOC3)n2C)c(Cl)c1Cl` (racemic) [I-100 e99] reads 0.001 to 1 µM.
`Cn1c(C(=O)NC2(c3ccc(CC(=O)O)cc3Cl)COC2)cc2c(Cl)c(Cl)ccc21` [I-84 e49]: the half-maximal inhibitory concentration (IC50) is 0.001 to 1 µM.
The result for `COc1ccc2c(cc(C(=O)NC3(c4ccc(S(=O)(=O)NC(C)=O)cc4)COC3)n2C)c1Cl` [I-164 e88] reads 0.001 to 1 µM.
The result for `C[C@@H](C(=O)O)c1ccc(C2(NC(=O)c3cc4c(Cl)c(Cl)ccc4n3C)COC2)cc1` (single isomer, unassigned) [I-34 or I-35 e161 peak 2] reads 0.001 to 1 µM; that for `COc1cc2c(cc(C(=O)NC3(c4ccc(C(C)(C)C(=O)O)cc4F)CCOC3)n2C)c(Cl)c1Cl` (racemic) [I-53 e80], 0.001 to 1 µM.
Turning to `Cn1c(C(=O)NC2(c3ccc(C(=O)O)cc3)CCN(c3ccccc3)C2)cc2c(Cl)c(Cl)ccc21` (racemic) [I-121 e21], the half-inhibitory concentration (IC50) was in the range of 1 to 5 µM.
As for `COc1cc2c(cc(C(=O)NC3(c4ccc(C(=O)O)cc4Cl)COC3)n2C)c(Cl)c1C` [I-46 e73], the figure is 0.001 to 1 µM.
The compound `COc1ccc2c(cc(C(=O)NC3(c4ccc(C(C)C(=O)O)cc4F)COC3)n2C)c1Cl` (racemic) [I-49 e60] displayed an IC50 of 0.001 to 1 µM.
The result for `CN1CC(COc2cc3c(cc(C(=O)NC4(c5ccc(C(=O)O)cc5)CCOC4)n3C)c(Cl)c2Cl)CC1=O` (racemic) [I-102 e100] reads 0.001 to 1 µM.
The compound `COc1cc2c(cc(C(=O)NC3(c4ccc(C(=O)O)cc4C)COC3)n2C)c(Cl)c1Cl` [I-51 e68] had a concentration for half-maximal inhibition (IC50) of 0.001 to 1 µM.
The result for `COc1ccc2c(cc(C(=O)NC3(c4ccc(C(CCCO)C(=O)O)cc4)COC3)n2C)c1Cl` (stereo not shown) [I-11 e72] reads 0.001 to 1 µM; that for `CC(C(=O)O)c1ccc(C2(NC(=O)c3cc4c(Cl)c(Cl)ccc4n3C)CCOC2)cc1` (racemic) [I-105 e152, (±)-2-[4-[3-[(4,5-dichloro-1-methyl-indole-2-carbonyl)amino]tetrahydrofuran-3-yl]phenyl]propanoic acid], 0.001 to 1 µM.
As to `COc1ccc2c(cc(C(=O)NC3(c4ccc(C(=O)O)cc4)CCOC3)n2C)c1Cl` (racemic) [I-122 e26], the 50% inhibitory concentration (IC50) was 0.001 to 1 µM.
Consider `Cn1c(C(=O)NC2(c3ccc(C(C(=O)O)C4CC4)cc3)CCOC2)cc2c(Cl)c(Cl)ccc21` (racemic) [I-15 e162, (±)-2-Cyclopropyl-2-(4-(3-(4,5-dichloro-1-methyl-1H-indole-2-carboxamido)tetrahydrofuran-3-yl)phenyl)acetic acid], for which the concentration for half-maximal inhibition (IC50) fell in the range of 0.001 to 1 µM.
For `COc1ccc2c(cc(C(=O)NC3(c4ccc(C(=O)O)cc4F)COC3)n2C)c1Cl` [I-75 e66], the IC50 lay in the range of 0.001 to 1 µM.
`CC(C)C(C(=O)O)c1ccc(C2(NC(=O)c3cc4c(Cl)c(Cl)ccc4n3C)COC2)cc1` (racemic) [I-30 e134] showed a concentration for half-maximal inhibition (IC50) of 0.001 to 1 µM.
As for `Cn1c(C(=O)NC2(c3ccc(C(=O)O)cc3F)COC2)cc2c(Cl)c(Cl)ccc21` [I-79 e41], the figure is 0.001 to 1 µM.

(Values after patent US11634412B2, “3-phosphoglycerate dehydrogenase inhibitors and uses thereof” (Raze Therapeutics, Inc., priority 2016, dated 2023).)
